{
  "source": "patent US20070167492A1",
  "about": "“Molluscicidal agents” (priority 2003, published 2007)",
  "key": {"[1]": {"test_system": "Deroceras reticulatum (grey field slug)", "test": "Example 1: pot test, treated winter wheat seed with 5 adult slugs per pot, 14 days", "type": "in vivo", "procedure,_shortened": "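Fludioxonil-disinfected winter wheat seed (Kampa, 40 per pot) sown on quartz sand over potting soil with 5 adult slugs per pot; ±15° C., ±90% RH, 12 h light/12 h dark, 4 replicates. Damaged seeds, plants, dead slugs and fecal pellets counted up to day 14; F-tests and Student-tests.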"}, "[2]": {"test_system": "Winter wheat (Kampa race) seeds", "test": "Seed germination test of treated winter wheat seeds (rolled in paper)", "type": "in vivo", "conditions": "3x50 seeds, 6 days at 22° C.", "procedure,_shortened": "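Seeds were disinfected with fludioxonil-containing Beret Gold (2 ml per kg seed) and coated with Sepiret® for formulations unsuitable for coating. Germination of 3×50 seeds rolled in paper was scored after 6 days at continuous 22° C. under a 16 hours light regime.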"}, "[3]": {"conditions": "3.8 ml formulated per kg seed, 2 days after sowing"}, "[4]": {"conditions": "3.8 ml formulated per kg seed, 3 days after sowing"}, "[5]": {"conditions": "3.8 ml formulated per kg seed, 7 days after sowing"}, "[6]": {"conditions": "3.8 ml formulated per kg seed, 10 days after sowing"}, "[7]": {"conditions": "3.8 ml formulated per kg seed, 14 days after sowing"}, "[8]": {"conditions": "7.5 ml formulated per kg seed, 2 days after sowing"}, "[9]": {"conditions": "7.5 ml formulated per kg seed, 3 days after sowing"}, "[10]": {"conditions": "7.5 ml formulated per kg seed, 7 days after sowing"}, "[11]": {"conditions": "7.5 ml formulated per kg seed, 10 days after sowing"}, "[12]": {"conditions": "7.5 ml formulated per kg seed, 14 days after sowing"}, "[13]": {"conditions": "11 ml formulated per kg seed, 2 days after sowing"}, "[14]": {"conditions": "11 ml formulated per kg seed, 3 days after sowing"}, "[15]": {"conditions": "11 ml formulated per kg seed, 7 days after sowing"}, "[16]": {"conditions": "11 ml formulated per kg seed, 10 days after sowing"}, "[17]": {"conditions": "11 ml formulated per kg seed, 14 days after sowing"}, "[18]": {"conditions": "15 ml formulated per kg seed, 2 days after sowing"}, "[19]": {"conditions": "15 ml formulated per kg seed, 3 days after sowing"}, "[20]": {"conditions": "15 ml formulated per kg seed, 7 days after sowing"}, "[21]": {"conditions": "15 ml formulated per kg seed, 10 days after sowing"}, "[22]": {"conditions": "15 ml formulated per kg seed, 14 days after sowing"}},
  "data": [
    {"smiles": "CC1OC(C)OC(C)OC(C)O1", "note": "(stereo not shown) [metaldehyde]", "values": [
      {"measurement": "number of utilizable plants after 14 days", "setting": "[1]; 3.8 ml formulated per kg seed", "result": 32.3},
      {"measurement": "percentage of damaged seeds after 14 days", "setting": "[1]; 3.8 ml formulated per kg seed", "result": 7, "unit": "%"},
      {"measurement": "Mean number of damaged seeds per pot", "setting": "[1]; [3]", "result": 0},
      {"measurement": "Mean number of dead slugs per pot", "setting": "[1]; [3]", "result": 0},
      {"measurement": "Mean number fecal pellets per pot", "setting": "[1]; [4]", "result": 1},
      {"measurement": "Mean number of damaged seeds per pot", "setting": "[1]; [4]", "result": 0.3},
      {"measurement": "Mean number of dead slugs per pot", "setting": "[1]; [4]", "result": 0},
      {"measurement": "Mean number of plants present per pot", "setting": "[1]; [4]", "result": 9.3},
      {"measurement": "Mean number fecal pellets per pot", "setting": "[1]; [5]", "result": 4},
      {"measurement": "Mean number of damaged seeds per pot", "setting": "[1]; [5]", "result": 2.5},
      {"measurement": "Mean number of dead slugs per pot", "setting": "[1]; [5]", "result": 0},
      {"measurement": "Mean number of plants present per pot", "setting": "[1]; [5]", "result": 34.8},
      {"measurement": "Mean number fecal pellets per pot", "setting": "[1]; [6]", "result": 5},
      {"measurement": "Mean number of damaged seeds per pot", "setting": "[1]; [6]", "result": 1.3},
      {"measurement": "Mean number of dead slugs per pot", "setting": "[1]; [6]", "result": 0},
      {"measurement": "Mean number of plants present per pot", "setting": "[1]; [6]", "result": 33.0},
      {"measurement": "Mean number fecal pellets per pot", "setting": "[1]; [7]", "result": 31},
      {"measurement": "Mean number of damaged seeds per pot", "setting": "[1]; [7]", "result": 2.8},
      {"measurement": "Mean number of dead slugs per pot", "setting": "[1]; [7]", "result": 0.5},
      {"measurement": "Mean number of plants present per pot", "setting": "[1]; [7]", "result": 34.0},
      {"measurement": "number of utilizable plants after 14 days", "setting": "[1]; 7.5 ml formulated per kg seed", "result": 34.3},
      {"measurement": "percentage of damaged seeds after 14 days", "setting": "[1]; 7.5 ml formulated per kg seed", "result": 6, "unit": "%"},
      {"measurement": "Mean number of damaged seeds per pot", "setting": "[1]; [8]", "result": 0},
      {"measurement": "Mean number of dead slugs per pot", "setting": "[1]; [8]", "result": 0},
      {"measurement": "Mean number fecal pellets per pot", "setting": "[1]; [9]", "result": 2},
      {"measurement": "Mean number of damaged seeds per pot", "setting": "[1]; [9]", "result": 0},
      {"measurement": "Mean number of dead slugs per pot", "setting": "[1]; [9]", "result": 0},
      {"measurement": "Mean number of plants present per pot", "setting": "[1]; [9]", "result": 3.5},
      {"measurement": "Mean number fecal pellets per pot", "setting": "[1]; [10]", "result": 4},
      {"measurement": "Mean number of damaged seeds per pot", "setting": "[1]; [10]", "result": 3.5},
      {"measurement": "Mean number of dead slugs per pot", "setting": "[1]; [10]", "result": 0.8},
      {"measurement": "Mean number of plants present per pot", "setting": "[1]; [10]", "result": 34.3},
      {"measurement": "Mean number fecal pellets per pot", "setting": "[1]; [11]", "result": 4},
      {"measurement": "Mean number of damaged seeds per pot", "setting": "[1]; [11]", "result": 2.5},
      {"measurement": "Mean number of dead slugs per pot", "setting": "[1]; [11]", "result": 1.0},
      {"measurement": "Mean number of plants present per pot", "setting": "[1]; [11]", "result": 35.3},
      {"measurement": "Mean number fecal pellets per pot", "setting": "[1]; [12]", "result": 6},
      {"measurement": "Mean number of damaged seeds per pot", "setting": "[1]; [12]", "result": 2.5},
      {"measurement": "Mean number of dead slugs per pot", "setting": "[1]; [12]", "result": 1.5},
      {"measurement": "Mean number of plants present per pot", "setting": "[1]; [12]", "result": 35.0},
      {"measurement": "number of utilizable plants after 14 days", "setting": "[1]; 11 ml formulated per kg seed", "result": 36.3},
      {"measurement": "percentage of damaged seeds after 14 days", "setting": "[1]; 11 ml formulated per kg seed", "result": 1, "unit": "%"},
      {"measurement": "Mean number of damaged seeds per pot", "setting": "[1]; [13]", "result": 0},
      {"measurement": "Mean number of dead slugs per pot", "setting": "[1]; [13]", "result": 0},
      {"measurement": "Mean number fecal pellets per pot", "setting": "[1]; [14]", "result": 2},
      {"measurement": "Mean number of damaged seeds per pot", "setting": "[1]; [14]", "result": 0},
      {"measurement": "Mean number of dead slugs per pot", "setting": "[1]; [14]", "result": 0},
      {"measurement": "Mean number of plants present per pot", "setting": "[1]; [14]", "result": 9.8},
      {"measurement": "Mean number fecal pellets per pot", "setting": "[1]; [15]", "result": 2},
      {"measurement": "Mean number of damaged seeds per pot", "setting": "[1]; [15]", "result": 1.0},
      {"measurement": "Mean number of dead slugs per pot", "setting": "[1]; [15]", "result": 0.5},
      {"measurement": "Mean number of plants present per pot", "setting": "[1]; [15]", "result": 34.0},
      {"measurement": "Mean number fecal pellets per pot", "setting": "[1]; [16]", "result": 1},
      {"measurement": "Mean number of damaged seeds per pot", "setting": "[1]; [16]", "result": 0.3},
      {"measurement": "Mean number of dead slugs per pot", "setting": "[1]; [16]", "result": 0.5},
      {"measurement": "Mean number of plants present per pot", "setting": "[1]; [16]", "result": 35.8},
      {"measurement": "Mean number fecal pellets per pot", "setting": "[1]; [17]", "result": 3},
      {"measurement": "Mean number of damaged seeds per pot", "setting": "[1]; [17]", "result": 0.3},
      {"measurement": "Mean number of dead slugs per pot", "setting": "[1]; [17]", "result": 1.0},
      {"measurement": "Mean number of plants present per pot", "setting": "[1]; [17]", "result": 36.5},
      {"measurement": "number of utilizable plants after 14 days", "setting": "[1]; 15 ml formulated per kg seed", "result": 34.5},
      {"measurement": "percentage of damaged seeds after 14 days", "setting": "[1]; 15 ml formulated per kg seed", "result": 0, "unit": "%"},
      {"measurement": "Mean number of damaged seeds per pot", "setting": "[1]; [18]", "result": 0.3},
      {"measurement": "Mean number of dead slugs per pot", "setting": "[1]; [18]", "result": 0},
      {"measurement": "Mean number fecal pellets per pot", "setting": "[1]; [19]", "result": 1},
      {"measurement": "Mean number of damaged seeds per pot", "setting": "[1]; [19]", "result": 0},
      {"measurement": "Mean number of dead slugs per pot", "setting": "[1]; [19]", "result": 0.3},
      {"measurement": "Mean number of plants present per pot", "setting": "[1]; [19]", "result": 6.3},
      {"measurement": "Mean number fecal pellets per pot", "setting": "[1]; [20]", "result": 3},
      {"measurement": "Mean number of damaged seeds per pot", "setting": "[1]; [20]", "result": 0.8},
      {"measurement": "Mean number of dead slugs per pot", "setting": "[1]; [20]", "result": 0.8},
      {"measurement": "Mean number of plants present per pot", "setting": "[1]; [20]", "result": 35.0},
      {"measurement": "Mean number fecal pellets per pot", "setting": "[1]; [21]", "result": 4},
      {"measurement": "Mean number of damaged seeds per pot", "setting": "[1]; [21]", "result": 0},
      {"measurement": "Mean number of dead slugs per pot", "setting": "[1]; [21]", "result": 0.8},
      {"measurement": "Mean number of plants present per pot", "setting": "[1]; [21]", "result": 35.0},
      {"measurement": "Mean number fecal pellets per pot", "setting": "[1]; [22]", "result": 5},
      {"measurement": "Mean number of damaged seeds per pot", "setting": "[1]; [22]", "result": 0},
      {"measurement": "Mean number of dead slugs per pot", "setting": "[1]; [22]", "result": 1.0},
      {"measurement": "Mean number of plants present per pot", "setting": "[1]; [22]", "result": 35.3},
      {"measurement": "damaged seeds relative to the control", "setting": "[1]; Example 1, 3.8, 7.5, 11 or 15 ml per kg of seed, all dosages", "result": "significantly less damaged seeds"},
      {"measurement": "plants present relative to untreated", "setting": "[1]; Example 1, all dosages, after 7 days", "result": "significantly more plants present"},
      {"measurement": "fecal pellets relative to the untreated seed", "setting": "[1]; Example 1, at each dosage and at each observation", "result": "significantly less fecal pellets"},
      {"measurement": "protection / slug controlling effect (conclusion)", "setting": "[1]; Example 1, winter wheat seed treatment, dosages tested", "result": "excellent protection against slugs"},
      {"measurement": "Percentage germinated", "setting": "[2]; 3.8 ml formulated per kg seed", "result": 56, "unit": "%"},
      {"measurement": "Percentage germinated", "setting": "[2]; 7.5 ml formulated per kg seed", "result": 31, "unit": "%"},
      {"measurement": "Percentage germinated", "setting": "[2]; 11 ml formulated per kg seed", "result": 48, "unit": "%"},
      {"measurement": "Percentage germinated", "setting": "[2]; 15 ml formulated per kg seed", "result": 8, "unit": "%"}
    ]}
  ]
}
